According to patent US20070105840A1, “Pyrrolo-dihydroisoquinoline derivatives as pde10 inhibitors” (Altana Pharma AG, priority 2003, published 2007):

melting point	SMILES
158 to 161 °C	CCOC(=O)c1c(-c2cc(C)c(O)c(C)c2)c(C)n2c1-c1cc(OC)c(OC)cc1CC2C (racemic) [Example 5, (5RS)-(4-Hydroxy-3,5-dimethyl-phenyl)-8,9-dimethoxy-3,5-dimethyl-5,6-dihydro-pyrrolo[2,1-a]isoquinoline-1-carboxylic acid ethyl ester]
164 to 166 °C	CCOC(=O)c1c(-c2cc(C)c(O)c(C)c2)c(C)n2c1-c1cc(OC)c(OC)cc1CC2CC (racemic) [Example 6, (5RS)-5-Ethyl-2-(4-hydroxy-3,5-dimethyl-phenyl)-8,9-dimethoxy-3-methyl-5,6-dihydro-pyrrolo[2,1-a]isoquinoline-1-carboxylic acid ethyl ester]
188 to 190 °C	CCOC(=O)c1c(-c2cc(C)c(O)c(C)c2)c(CC)n2c1-c1cc(OC)c(OC)cc1CC2C (racemic) [Example 9, (5RS)-3-Ethyl-2-(4-hydroxy-3,5-dimethyl-phenyl)-8,9-dimethoxy-5-methyl-5,6-dihydro-pyrrolo[2,1-a]isoquinoline-1-carboxylic acid ethyl ester]
116 to 118 °C	CCOC(=O)c1c(-c2cc(OC)c(OC)c(OC)c2)c(C)n2c1-c1cc(OC)c(OC)cc1CC2C (racemic) [Example 10, (5RS)-8,9-Dimethoxy-3,5-dimethyl-2-(3,4,5-trimethoxy-phenyl)-5,6-dihydro-pyrrolo[2,1-a]isoquinoline-1-carboxylic acid ethyl ester]
184 °C	CCOC(=O)c1c(-c2cccc3ccccc23)c(C)n2c1-c1cc(OC)c(OC)cc1CC2C (racemic) [Example 11, (5RS)-8,9-Dimethoxy-3,5-dimethyl-2-naphthalen-1-yl-5,6-dihydro-pyrrolo[2,1-a]isoquinoline-1-carboxylic acid ethyl ester]
56 to 59 °C	CCOC(=O)c1c(-c2cccc3ccccc23)c(CCC(=O)OC)n2c1-c1cc(OC)c(OC)cc1CC2C (racemic) [Example 20, (5RS)-8,9-Dimethoxy-3-(2-methoxycarbonyl-ethyl)-5-methyl-2-naphthalen-1-yl-5,6-dihydro-pyrrolo[2,1-a]isoquinoline-1-carboxylic acid ethyl ester]
186 to 192 °C	CCOC(=O)c1c(-c2cc(C)c(O)c(C)c2)c(C)n2c1-c1cc(OC)c(OC)cc1C1CCCCC12 (stereo not drawn) [Example 8, (4aRS,8aRS)-cis-2-(4-hydroxy-3,5-dimethyl-phenyl)-10,11-dimethoxy-3-methyl-4a,5,6,7,8,8a-hexahydro-pyrrolo[2,1-f]phenanthridine-1-carboxylic acid ethyl ester]
189 to 191 °C	CCOC(=O)c1c(-c2cccc3ccccc23)c(C)n2c1-c1cc(OC)c(OC)cc1C1CCCCC12 (stereo not drawn) [Example 12, (4aRS,8aRS)-cis-10,11-Dimethoxy-3-methyl-2-naphthalen-1-yl-4a,5,6,7,8,8a-hexahydro-pyrrolo[2,1-f]phenanthridine-1-carboxylic acid ethyl ester]
153 to 157 °C	CCOC(=O)c1c(-c2ccnc3ccccc23)c(C)n2c1-c1cc(OC)c(OC)cc1C1CCCCC12 (stereo not drawn) [Example 13, (4aRS,8aRS)-cis-10,11-Dimethoxy-3-methyl-2-quinolin-4-yl-4a,5,6,7,8,8a-hexahydro-pyrrolo[2,1-f]phenanthridine-1-carboxylic acid ethyl ester]
144 °C	CCOC(=O)c1c(-c2cc(C)c(O)c(C)c2)c(C)n2c1-c1cc(OC)c(OC)c(OC)c1CC2C (stereo not drawn) [Example 18, (5RS)-2-(4-Hydroxy-3,5-dimethyl-phenyl)-7,8,9-bimethoxy-3,5-dimethyl-5,6-dihydro-pyrrolo[2,1-a]isoquinoline-1-carboxylic acid ethyl ester]
226 to 229 °C	COc1cc2c(cc1OC)-c1c(C#N)c(-c3cccc4ccccc34)c(C)n1CC2 [Example 22, 8,9-Dimethoxy-3-methyl-2-naphthalen-1-yl-5,6-dihydro-pyrrolo[2,1-a]isoquinoline-1-carbonitrile]
239 to 243 °C	COc1cc2c(cc1OC)-c1c(C#N)c(-c3ccnc4ccccc34)c(C)n1CC2 [Example 23, 8,9-Dimethoxy-3-methyl-2-quinolin-4yl-5,6-dihydro-pyrrolo[2,1-a]isoquinoline-1-carbonitrile]
304 to 307 °C	COc1cc2c(cc1OC)-c1c(C#N)c(-c3c[nH]c4ccccc34)c(C)n1CC2 [Example 24, 2-(1H-indol-3-yl)-8,9-dimethoxy-3-methyl-5,6-dihydro-pyrrolo[2,1-a]isoquinoline-1-carbonitrile]
250 to 252 °C	COc1cc2c(cc1OC)-c1c(C#N)c(-c3cc(C(C)(C)C)c(O)c(C(C)(C)C)c3)c(C)n1CC2 [Example 25, 2-(3,5-Di-tert-butyl-4-hydroxy-phenyl)-8,9-dimethoxy-3-methyl-5,6-dihydro-pyrrolo[2,1-a]isoquinoline-1-carbonitrile]
253 to 254 °C	COc1cc2c(cc1OC)-c1c(C#N)c(-c3ccncc3)c(C)n1C(C)C2 (centres unmarked) [Example 26, 8,9-Dimethoxy-3,5-dimethyl-2-pyridin-4-5,6-dihydro-pyrrolo[2,1-a]isoquinoline-1-carbonitrile]
208 to 209 °C	COC(=O)CCc1c(-c2cc(C)c(O)c(C)c2)c(C#N)c2n1C(C)Cc1cc(OC)c(OC)cc1-2 (centres unmarked) [Example 27, 3-[1-Cyano-2-(4-hydroxy-3,5-dimethyl)-8,9-dimethoxy-5-methyl-5,6-dihydro-pyrrolo[2,1-a]isoquinolin-3-yl]-propionic acid methyl ester]

melting point	SMILES
268 to 270 °C	COc1cc2c(cc1OC)-c1c(C#N)c(-c3cc(C)c(O)c(C)c3)c(C)n1C(C)C2 (centres unmarked) [Example 28, 2-(4-Hydroxy-3,5-dimethyl-phenyl)-8,9-dimethoxy-3,5-dimethy-5,6-dihydro-pyrrolo[2,1-a]isoquinoline-1-carbonitrile]
191 to 193 °C	COC(=O)CCc1c(-c2ccncc2)c(C#N)c2n1CCc1cc(OC)c(OC)cc1-2 [Example 29, 3-(1-Cyano-8,9-dimethoxy-2-pyridin-4-yl-5,6-dihydro-pyrrolo[2,1-a]isoquinolin-3-yl)-propionic acid methyl ester]
166 to 168 °C	COc1cc2c(c(F)c1OC)CC(C)n1c(C)c(-c3cc(C)c(O)c(C)c3)c(C#N)c1-2 (centres unmarked) [Example 30, 7-Fluoro-2-(4-hydroxy-3,5-dimethyl-phenyl)-8,9-dimethoxy-3,5-dimethyl-5,6-dihydro-pyrrolo[2,1-a]isoquinoline-1-carbonitrile]
232 to 234 °C	COC(=O)CCc1c(-c2ccnc3ccccc23)c(C#N)c2n1CCc1cc(OC)c(OC)cc1-2 [Example 31, 3-(1-Cyano-8,9-dimethoxy-2-quinolin-4-yl-5,6dihydro-pyrrolo[2,1-a]isoquinolin-3-yl)-propionic acid methyl ester]
217 to 219 °C	COC(=O)CCc1c(-c2cc(C)c(O)c(C)c2)c(C#N)c2n1CCc1cc(OC)c(OC)cc1-2 [Example 32, 3-[1-Cyano-2-(4-hydroxy-3,5-dimethyl-phenyl)-8,9-dimethoxy-5,6-dihydro-pyrrolo[2,1-a]isoquinolin-3-yl]-propionic acid methyl ester]
219 to 221 °C	COc1cc2c(cc1OC)-c1c(C#N)c(-c3cn(S(C)(=O)=O)c4ccccc34)c(C)n1C(C)C2 (centres unmarked) [Example 40, 2-(1-Methanesulfonyl-1H-indol-3-yl)-8,9-dimethoxy-3,5-dimethyl-5,6-dihydro-pyrrolo[2,1-a]isoquinoline-1-carbonitrile]
279 to 282 °C	COc1cc2c(cc1OC)-c1c(C#N)c(-c3cc[n+]([O-])cc3)c(C)n1C(C)C2 (centres unmarked) [Example 41, 8,9-Dimethoxy-3,5-dimethyl-2-(1-oxy-pyridin-4-yl)-5,6-dihydro-pyrolo[2,1-a]isoquinoline-1-carbonitrile]
228 to 230 °C	COc1cc2c(cc1OC)-c1c(C#N)c(-c3cc(C)c(O)c(C)c3)c(CN3CCOCC3)n1C(C)C2 (centres unmarked) [Example 44, 2-(4-Hydroxy-3,5-dimethyl-phenyl)-8,9-dimethoxy-5-methyl-3-morpholin-4-ylmethyl-5,6-dihydro-pyrrolo[2,1-a]isoquinoline-1-carbonitrile]
187 to 189 °C	COc1cc2c(cc1OC)-c1c(C#N)c(-c3ccnc(C)c3)c(C)n1C(C)C2 (centres unmarked) [Example 45]
206 to 207 °C	COc1cc2c(cc1OC)-c1c(C#N)c(-c3ccc([N+](=O)[O-])cc3)c(C)n1C(C)C2 (centres unmarked) [Example 46, 8,9-Dimethoxy-3,5-dimethyl-2-(4-nitro-phenyl)-5,6-dihydro-pyrrolo[2,1-a]isoquinoline-1-carbonitrile]
287 to 289 °C	COc1cc2c(cc1OC)-c1c(C#N)c(-c3ccc(C(=O)O)cc3)c(C)n1C(C)C2 (centres unmarked) [Example 47, 4-(1-Cyano-8,9-dimethoxy-3,5-dimethyl-5,6-dihydro-pyrrolo[2,1-a]isoquinolin-2-yl)-benzoic acid]
237 to 239 °C	COc1cc2c(cc1OC)-c1c(C#N)c(-c3ccc(N)cc3)c(C)n1C(C)C2 (centres unmarked) [Example 48, 2-(4-Amino-phenyl)-8,9-dimethoxy-3,5-dimethyl-5,6-dihydm-pyrrolo[2,1-a]isoquinoline-1-carbonitrile]
232 to 233 °C	COc1cc2c(cc1OC)-c1c(C#N)c(-c3ccncc3C)c(C)n1C(C)C2 (centres unmarked) [Example 49, 8,9-Dimethoxy-3,5-dimethyl-2-(3-methyl-pyridin-4-yl)-5,6-dihydro-pyrrolo[2,1-a]isoquinoline-1-carbonitrile]
274 to 277 °C	CCOc1cc2c(cc1OC)-c1c(C#N)c(-c3ccc(C(=O)O)cc3)c(C)n1C(C)C2 (centres unmarked) [Example 50, 4-(1-Cyano-8-ethoxy-9-methoxy-3,5-dimethyl-5,6-dihydro-pyrrolo[2,1-a]isoquinolin-2-yl)-benzoic acid]
228 to 230 °C	COc1cc2c(cc1OC)-c1c(C#N)c(-c3ccc(O)cc3C)c(C)n1C(C)C2 (centres unmarked) [Example 51, 2-(4-Hydroxy-2-methyl-phenyl)-8,9-dimethoxy-3,5-dimethyl-5,6-dihydro-pyrrolo[2,1-a]isoquinoline-1-carbonitrile]
228 to 230 °C	COc1cc2c(cc1OC)-c1c(C#N)c(-c3ccc(C(N)=O)cc3)c(C)n1C(C)C2 (centres unmarked) [Example 52, 4-(1-Cyano-8,9-dimethoxy-3,5-dimethyl-5,6-dihydro-pyrrolo[2,1-a]isoquinolin-2-yl)-benzamide]
